Source: patent US10968178B2, “IP6K inhibitors” (TAKEDA PHARMACEUTICAL COMPANY LIMITED, priority 2017, dated 2021)

What was measured:
Assay type in all cases: biochemical
[1] = biological target: T1, human IP6K2 (Homo sapiens, UniProt Q9UHH9); experiment: IP6K enzyme inhibitory assay (ADP-Glo Kinase Assay), human IP6K2; details: compound concentration 0.1 μM; read-out: ADP-Glo method inhibitory rate (%) human IP6K2
T1 construct: human IP6K2 (1-426) gene; GST; made in house; host or cells: Sf-9 insect cells
T1 sequence (Q9UHH9 1-426): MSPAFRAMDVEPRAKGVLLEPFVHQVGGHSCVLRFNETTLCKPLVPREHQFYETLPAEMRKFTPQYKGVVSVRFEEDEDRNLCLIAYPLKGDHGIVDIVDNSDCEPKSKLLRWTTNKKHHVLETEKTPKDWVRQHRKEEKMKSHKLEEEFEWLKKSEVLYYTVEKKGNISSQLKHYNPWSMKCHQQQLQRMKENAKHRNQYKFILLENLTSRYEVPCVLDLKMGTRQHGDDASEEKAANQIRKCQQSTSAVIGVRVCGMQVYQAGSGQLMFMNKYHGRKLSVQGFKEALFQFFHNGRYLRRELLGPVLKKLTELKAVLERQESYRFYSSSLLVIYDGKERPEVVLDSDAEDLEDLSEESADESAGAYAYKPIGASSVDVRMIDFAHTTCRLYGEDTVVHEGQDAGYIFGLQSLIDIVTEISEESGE
Description: (§1) IP6K Enzyme Inhibitory Assay
(§2) Human IP6K3 enzyme was prepared by transducing human IP6K3 (1-410) gene into BL21 (DE3) Escherichia coli and purifying by Ni-NTA (nickel-nitrilotriacetic acid) affinity column. […] The enzymes were used after preservation at −70° C. The IP6K enzyme inhibitory activity of the test compound was measured by the following experiment method and using ADP-Glo™ Kinase Assay (manufactured by Promega). A test compound diluted with an assay buffer (20 mM HEPES (pH 7.5), 6 mM MgCl2, 0.01% Tween-20, 1 mM DTT) was first added by 2 μL to a 384 well plate. […] The IP6K enzyme solution diluted with the assay buffer was added by 2 μL to start the enzyme reaction. Incubation was performed at room temperature for a given time (120 min for rat IP6K3 alone, 60 min for others). After incubation at room temperature, ADP-Glo solution prepared according to the protocol of Promega was added by 3 μL to the 384 well plate and reacted at room temperature for 30 min. Thereafter, Kinase-Detection solution was added by 6 μL to the 384 well plate and reacted at room temperature for 60 min. After the reaction, the luminescence intensity was measured by a plate reader Envision (manufactured by PerkinElmer).

[2] = biological target: T2, human IP6K1 (Homo sapiens, UniProt Q92551); experiment: IP6K enzyme inhibitory assay (ADP-Glo Kinase Assay), human IP6K1; details: compound concentration 0.1 μM; read-out: ADP-Glo method inhibitory rate (%) human IP6K1
T2 construct: human IP6K1 (1-441) gene; GST; made in house; host or cells: Sf-9 insect cells
T2 sequence (Q92551 whole entry): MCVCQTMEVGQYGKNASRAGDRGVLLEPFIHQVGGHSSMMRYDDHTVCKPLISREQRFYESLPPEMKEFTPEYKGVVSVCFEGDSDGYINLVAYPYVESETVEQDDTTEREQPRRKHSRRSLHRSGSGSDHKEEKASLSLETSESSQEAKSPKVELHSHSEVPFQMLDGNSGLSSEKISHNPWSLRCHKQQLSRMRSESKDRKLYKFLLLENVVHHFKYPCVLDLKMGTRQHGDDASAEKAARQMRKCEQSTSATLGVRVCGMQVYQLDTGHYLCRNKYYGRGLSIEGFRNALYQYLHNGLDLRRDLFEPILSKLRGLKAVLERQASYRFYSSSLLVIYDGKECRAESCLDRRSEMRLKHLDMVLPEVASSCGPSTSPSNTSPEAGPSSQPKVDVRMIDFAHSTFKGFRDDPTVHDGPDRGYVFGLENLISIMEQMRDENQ
Description: as §1, §2

[3] = biological target: T3, human IP6K3 (Homo sapiens, UniProt Q96PC2); experiment: IP6K enzyme inhibitory assay (ADP-Glo Kinase Assay), human IP6K3; details: compound concentration 0.1 μM; read-out: ADP-Glo method inhibitory rate (%) human IP6K3
T3 construct: human IP6K3 (1-410) gene; made in house; host or cells: BL21 (DE3) Escherichia coli
T3 sequence (Q96PC2 1-410): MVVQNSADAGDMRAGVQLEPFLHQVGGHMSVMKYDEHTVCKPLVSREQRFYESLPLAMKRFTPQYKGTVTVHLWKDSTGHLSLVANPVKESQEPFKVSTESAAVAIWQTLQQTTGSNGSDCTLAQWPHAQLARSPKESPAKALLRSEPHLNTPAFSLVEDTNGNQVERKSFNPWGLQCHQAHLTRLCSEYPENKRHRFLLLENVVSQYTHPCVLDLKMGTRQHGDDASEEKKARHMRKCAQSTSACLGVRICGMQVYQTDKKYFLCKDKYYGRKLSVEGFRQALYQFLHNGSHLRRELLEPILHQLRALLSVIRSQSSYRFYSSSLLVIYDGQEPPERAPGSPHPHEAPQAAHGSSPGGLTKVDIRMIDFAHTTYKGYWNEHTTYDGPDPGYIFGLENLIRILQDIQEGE
Description: as §1, §2

Row | Compound | inhibition at 0.1 µM [1] | inhibition at 0.1 µM [2] | inhibition at 0.1 µM [3]
1 | N#Cc1cc(Cl)ccc1O[C@H]1CC[C@@]2(CC1)C(=O)Nc1ccc(C(=O)O)cc12 [Example 7, (1r,4r)-4-(4-chloro-2-cyanophenoxy)-2′-oxo-1′,2′-dihydrospiro[cyclohexane-1,3′-indole]-5′-carboxylic acid] | 101% | 100% | 86%
2 | O=C(O)c1ccc2c(c1)[C@]1(CC[C@@H](Oc3ccc(F)c(C(F)(F)F)c3)CC1)C(=O)N2 [Example 79, (1r,4r)-4-(4-fluoro-3-(trifluoromethyl)phenoxy)-2′-oxo-1′,2′-dihydrospiro[cyclohexane-1,3′-indole]-5′-carboxylic acid] | 89% | 87% | 97%
3 | O=C(O)c1ccc2c(c1)[C@]1(CC[C@H](Oc3ccc(Cl)cc3Cl)CC1)C(=O)N2 [Example 15, (1s,4s)-4-(2,4-dichlorophenoxy)-2′-oxo-1′,2′-dihydrospiro[cyclohexane-1,3′-indole]-5′-carboxylic acid] | 101% | 99% | 91%
4 | O=C(O)c1ccc2c(c1)[C@]1(CC[C@@H](Oc3ccc(C(F)(F)F)cn3)CC1)C(=O)N2 [Example 25, (1r,4r)-2′-oxo-4-((5-(trifluoromethyl)pyridin-2-yl)oxy)-1′,2′-dihydrospiro[cyclohexane-1,3′-indole]-5′-carboxylic acid] | 97% | 95% | 98%
5 | Cc1ccc(O[C@H]2CC[C@@]3(CC2)C(=O)Nc2ccc(C(=O)O)cc23)cc1F [Example 52, (1r,4r)-4-(3-fluoro-4-methylphenoxy)-2′-oxo-1′,2′-dihydrospiro[cyclohexane-1,3′-indole]-5′-carboxylic acid] | 100% | 99% | 96%
6 | O=C(O)c1ccc2c(c1)[C@]1(CC[C@@H](Oc3cc(C(F)(F)F)ccc3F)CC1)C(=O)N2 [Example 78, (1r,4r)-4-(2-fluoro-5-(trifluoromethyl)phenoxy)-2′-oxo-1′,2′-dihydrospiro[cyclohexane-1,3′-indole]-5′-carboxylic acid] | 96% | 96% | 98%
7 | O=C(O)c1ccc2c(c1)[C@]1(CC[C@@H](Oc3cc(Cl)ccn3)CC1)C(=O)N2 [Example 23, (1r,4r)-4-((4-chloropyridin-2-yl)oxy)-2′-oxo-1′,2′-dihydrospiro[cyclohexane-1,3′-indole]-5′-carboxylic acid] | 79% | 72% | 92%
8 | O=C(O)c1ccc2c(c1)[C@]1(CC[C@@H](Oc3ccccn3)CC1)C(=O)N2 [Example 19, (1r,4r)-2′-oxo-4-[pyridin-2-yloxy)-1′,2′-dihydrospiro[cyclohexane-1,3′-indole]-5′-carboxylic acid] | 45% | 40% | 70%
9 | O=C(O)c1ccc2c(c1)[C@]1(CC[C@@H](Oc3ccc(F)cc3)CC1)C(=O)N2 [Example 2] | 94% | 101% | 100%
10 | COc1ccc(O[C@H]2CC[C@@]3(CC2)C(=O)Nc2ccc(C(=O)O)cc23)cc1 [Example 49, (1r,4r)-4-(4-methoxyphenxoy)-2′-oxo-1′,2′-dihydrospiro[cyclohexane-1,3′-indole]-5′-carboxylic acid] | 99% | 100% | 100%
11 | O=C(O)c1ccc2c(c1)[C@]1(CC[C@@H](Oc3ncc(C(F)(F)F)cc3F)CC1)C(=O)N2 [Example 27, (1r,4r)-4-((3-fluoro-5-(trifluoromethyl)pyridin-2-yl)oxy)-2′-oxo-1′,2′-dihydrospiro[cyclohexane-1,3′-indole]-5′-carboxylic acid] | 93% | 97% | 96%
12 | N#Cc1c(F)cccc1O[C@H]1CC[C@@]2(CC1)C(=O)Nc1ccc(C(=O)O)cc12 [Example 63, (1r,4r)-4-(2-cyano-3-fluorophenoxy)-2′-oxo-1′,2′-dihydrospiro[cyclohexane-1,3′-indole]-5′-carboxylic acid] | 87% | 69% | 96%

Continued, values first:

Row | inhibition at 0.1 µM [1] | inhibition at 0.1 µM [2] | inhibition at 0.1 µM [3] | Compound
13 | 82% | 62% | 89% | Cn1nc(O[C@H]2CC[C@@]3(CC2)C(=O)Nc2ccc(C(=O)O)cc23)cc1C(F)(F)F [Example 80, (1r,4r)-4-((1-methyl-5-(trifluoromethyl)-1H-pyrazol-3-yl)oxy)-2′-oxo-1′,2′-dihydrospiro[cyclohexane-1,3′-indole]-5′-carboxylic acid]
14 | 93% | 94% | 92% | O=C(O)c1ccc2c(c1)[C@]1(CC[C@H](Oc3ccccc3)CC1)C(=O)N2 [Example 107, (1s,4s)-2′-oxo-4-phenoxy-1′,2′-dihydrospiro[cyclohexane-1,3′-indole]-5′-carboxylic acid]
15 | 50% | 55% | 80% | O=C(O)c1ccc2c(n1)[C@]1(CC[C@H](Oc3c(F)cc(Cl)cc3F)CC1)C(=O)N2 [Example 86, (1s,4s)-4-(4-chloro-2,6-difluorophenoxy)-2′-oxo-1′,2′-dihydrospiro[cyclohexane-1,3′-pyrrolo[3,2-b]pyridine]-5′-carboxylic acid]
16 | 95% | 94% | 95% | O=C(O)c1ccc2c(n1)[C@]1(CC[C@@H](Oc3ncc(C4CC4)cc3C(F)(F)F)CC1)C(=O)N2 [Example 109, (1r,4r)-4-((5-cyclopropyl-3-(trifluoromethyl)pyridin-2-yl)oxy)-2′-oxo-1′,2′-dihydrospiro[cyclohexane-1,3′-pyrrolo[3,2-b]pyridine]-5′-carboxylic acid]
17 | 97% | 101% | 97% | O=C(O)c1ccc2c(n1)[C@]1(CC[C@H](Oc3ccc(Cl)cc3)CC1)C(=O)N2 [Example 88, (1s,4s)-4-(4-chlorophenoxy)-2′-oxo-1′,2′-dihydrospiro[cyclohexane-1,3′-pyrrolo[3,2-b]pyridine]-5′-carboxylic acid]
18 | 59% | 75% | 91% | O=C(O)c1ccc2c(n1)[C@]1(CC[C@H](Oc3ccc(F)cc3F)CC1)C(=O)N2 [Example 84, (1s,4s)-4-(2,4-difluorophenoxy)-2′-oxo-1′,2′-dihydrospiro[cyclohexane-1,3′-pyrrolo[3,2-b]pyridine]-5′-carboxylic acid]
19 | 99% | 95% | 101% | O=C(O)c1ccc2c(n1)[C@]1(CC[C@H](Oc3ccc(Cl)cc3C(F)(F)F)CC1)C(=O)N2 [Example 96, (1s,4s)-4-(4-chloro-2-(trifluoromethyl)phenoxy)-2′-oxo-1′,2′-dihydrospiro[cyclohexane-1,3′-pyrrolo[3,2-b]pyridine]-5′-carboxylic acid]
20 | 100% | 96% | 100% | Cc1cc(Cl)cnc1O[C@H]1CC[C@]2(CC1)C(=O)Nc1ccc(C(=O)O)nc12 [Example 81, (1s,4s)-4-((5-chloro-3-methylpyridin-2-yl)oxy)-2′-oxo-1′,2′-dihydrospiro[cyclohexane-1,3′-pyrrolo[3,2-b]pyridine]-5′-carboxylic acid]
